Data as given in PMC4362760, “JAK2^V617F Drives Mcl-1 Expression and Sensitizes Hematologic Cell Lines to Dual Inhibition of JAK2 and Bcl-xL” (PLoS ONE, 2015).
pKi: −log10 of the molar value.

Legend:
[1] = test system: K562 cells; assay: alamarBlue cell viability, JAKi-I/ABT-263 combination, 72 hr, K562; type: cell-based; conditions: K562, 72h, Jaki-1 0 uM
Method: (§1) Transfection of siRNAs was performed using Lipofectamine RNAiMAX according to the manufacturer’s recommendations. […] Caspase-3 activity was determined using the Caspase-GLO 3/7 Assay (Promega) in parallel with the CellTiter-GLO viability assay (Promega). The data are expressed as Caspase-3/7 activity divided by cell viability.
(§2) Caspase-3 activity was determined at each time point. Data are from duplicate samples and are representative of at least three independent experiments. (D-G) Cells were treated in combination as indicated, and cell viability was determined after 72 hr. Data are means of duplicate determinations, and are representative of at least three independent experiments. […] Drugs were added simultaneously, and cell viability was determined after 72 hr. The data were then analyzed using the drug-drug interaction model of Bliss additivity^16 to define dose combinations that were synergistic (values >15; red), antagonistic (values <-15; blue), or without effect (-15<values<15; gray). (I) Model of JAK2/Bcl-2 family inhibitor synergy. JAK2^V617F constitutively phosphorylates and activates STAT3/5, thus enforcing expression of the transcriptional target, Mcl-1. Mcl-1 collaborates with Bcl-XL to oppose apoptosis and support viability.
(§3) Supplementary file pone.0114363.s006.xls: S6 Dataset Cells were treated in combination as indicated, and cell viability was determined using alamarBlue after 72 hr. Data are means of duplicate determinations, and are representative of at least three independent experiments. (XLS) Click here for additional data file.

[2] = test system: JAK2 V617F-positive and -negative leukemia cell lines; assay: Drug-drug interaction across leukemia lines: ABT-263 dose shift and Bliss additivity matrix, 72-hr cell viability; type: cell-based; conditions: JAKi-I and ABT-263 0.03-1 μM matrix, 72-hr viability, cell lines carrying JAK2 V617F
Method: as §1, §2

[3] = test system: Bim binding to Bcl-XL; assay: Bim immunoblot of lysates and Bcl-XL immunoprecipitates; type: cell-based
Method: For immunoprecipitation, lysates were prepared in CHAPS lysis buffer and 2 mg of cell lysate was mixed with at least 8 μg of immunoprecipitating antibody overnight at 4°C. The following day, 30 μl of a Protein A- or Protein G-agarose slurry was added for an additional 2 hr. Immunoprecipitates were washed three times in CHAPS lysis buffer, and heated in 1.5x loading buffer at 95°C for 5 min.
as §2

[4] = test system: Caspase-3/7; assay: Caspase-GLO 3/7 Assay, Caspase-3/7 activity divided by cell viability, fold of control; type: cell-based; conditions: for caspase-3 activity, single agent: JAKi-I or ABT-263 alone
[5] = test system: HEL cells; assay: alamarBlue cell viability, JAKi-I/ABT-263 combination, 72 hr, HEL; type: cell-based; conditions: Jaki-1 0 uM
Method: as §1, §2, §3

[6] = molecular target: cdk2 (Homo sapiens, UniProt P24941); assay: TR-FRET Kinome cdk2; type: binding; conditions: cdk2 Invitrogen .05(Subs Conc)
From the text: (§4) (XLS) Click here for additional data file.

[7] = molecular target: TAOK2 (Homo sapiens, UniProt Q9UL54); assay: TR-FRET Kinome TAOK2; type: binding; conditions: TAOK2 Invitrogen .2(Subs Conc)
Sequence of TAOK2 (Q9UL54 whole entry): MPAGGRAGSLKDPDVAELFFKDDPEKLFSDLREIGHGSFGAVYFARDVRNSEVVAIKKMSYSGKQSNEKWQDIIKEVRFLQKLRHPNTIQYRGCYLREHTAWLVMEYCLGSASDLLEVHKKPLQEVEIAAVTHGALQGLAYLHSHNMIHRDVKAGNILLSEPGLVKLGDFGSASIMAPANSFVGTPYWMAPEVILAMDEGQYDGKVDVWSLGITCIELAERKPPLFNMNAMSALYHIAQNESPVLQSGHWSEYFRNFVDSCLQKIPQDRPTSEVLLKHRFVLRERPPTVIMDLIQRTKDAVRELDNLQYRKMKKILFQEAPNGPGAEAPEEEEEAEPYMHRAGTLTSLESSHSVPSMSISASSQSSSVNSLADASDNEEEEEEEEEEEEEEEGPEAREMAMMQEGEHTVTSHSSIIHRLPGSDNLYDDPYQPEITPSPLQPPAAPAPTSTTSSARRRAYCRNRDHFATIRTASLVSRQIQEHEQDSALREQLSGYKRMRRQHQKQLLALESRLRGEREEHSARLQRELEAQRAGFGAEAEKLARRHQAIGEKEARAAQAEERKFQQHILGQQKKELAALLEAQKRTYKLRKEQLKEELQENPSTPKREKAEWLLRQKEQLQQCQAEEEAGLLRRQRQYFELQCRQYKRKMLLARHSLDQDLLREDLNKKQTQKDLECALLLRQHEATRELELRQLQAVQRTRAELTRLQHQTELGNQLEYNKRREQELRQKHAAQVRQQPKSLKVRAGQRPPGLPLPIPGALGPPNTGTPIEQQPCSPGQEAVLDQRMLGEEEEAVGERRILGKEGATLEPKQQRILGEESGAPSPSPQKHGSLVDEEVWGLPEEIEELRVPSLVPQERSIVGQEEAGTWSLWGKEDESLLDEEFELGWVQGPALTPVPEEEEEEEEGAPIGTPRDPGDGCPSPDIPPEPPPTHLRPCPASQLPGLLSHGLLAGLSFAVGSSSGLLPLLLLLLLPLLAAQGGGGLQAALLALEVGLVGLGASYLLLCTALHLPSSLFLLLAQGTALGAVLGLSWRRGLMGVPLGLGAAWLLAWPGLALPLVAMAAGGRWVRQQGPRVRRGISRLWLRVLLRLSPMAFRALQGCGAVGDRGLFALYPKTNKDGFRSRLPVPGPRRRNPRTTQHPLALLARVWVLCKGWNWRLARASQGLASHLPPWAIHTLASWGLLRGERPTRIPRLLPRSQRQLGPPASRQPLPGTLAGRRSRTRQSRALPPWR
From the text: as §4

[8] = test system: Bcl-XL mRNA; assay: Bcl-XL mRNA abundance by qPCR in SET-2, UKE-1, HEL, MV4;11, K562 cells; type: cell-based; conditions: for BCLxl % Control: treated vs non-treated (100.0); for BCLxl Mean QTY: treated, normalised mRNA quantity by qPCR
Method: (§5) Fig 1 Regulation of Mcl-1 and Bcl-XL by JAK2 ^V617F. […] Tyrosine phoshorylation of STAT3 and STAT5 was determined by immunoblotting. […] Constitutive tyrosine phosphorylation of STAT3 and STAT5 was determined by immunoblotting. […] Data represent means +/- standard deviation for two independent determinations each performed in triplicate. […] (G) Quantification of the data shown in (F). Data are expressed as the ratio of intensity of Mcl-1/β-actin for each time point. […] Data are means of duplicate samples and are representative of two independent experiments.
Data represent means +/- standard deviation for two independent determinations each performed in triplicate (data in Summary tab). Individual experimental data in exp 051409 and repeat Mcl1 tabs. (XLS) Click here for additional data file.

[9] = molecular target: MAP3K10 (Homo sapiens, UniProt Q02779); assay: TR-FRET Kinome MAP3K10; type: binding; conditions: MAP3K10 Invitrogen .005(Subs Conc)
Sequence of MAP3K10 (Q02779 whole entry): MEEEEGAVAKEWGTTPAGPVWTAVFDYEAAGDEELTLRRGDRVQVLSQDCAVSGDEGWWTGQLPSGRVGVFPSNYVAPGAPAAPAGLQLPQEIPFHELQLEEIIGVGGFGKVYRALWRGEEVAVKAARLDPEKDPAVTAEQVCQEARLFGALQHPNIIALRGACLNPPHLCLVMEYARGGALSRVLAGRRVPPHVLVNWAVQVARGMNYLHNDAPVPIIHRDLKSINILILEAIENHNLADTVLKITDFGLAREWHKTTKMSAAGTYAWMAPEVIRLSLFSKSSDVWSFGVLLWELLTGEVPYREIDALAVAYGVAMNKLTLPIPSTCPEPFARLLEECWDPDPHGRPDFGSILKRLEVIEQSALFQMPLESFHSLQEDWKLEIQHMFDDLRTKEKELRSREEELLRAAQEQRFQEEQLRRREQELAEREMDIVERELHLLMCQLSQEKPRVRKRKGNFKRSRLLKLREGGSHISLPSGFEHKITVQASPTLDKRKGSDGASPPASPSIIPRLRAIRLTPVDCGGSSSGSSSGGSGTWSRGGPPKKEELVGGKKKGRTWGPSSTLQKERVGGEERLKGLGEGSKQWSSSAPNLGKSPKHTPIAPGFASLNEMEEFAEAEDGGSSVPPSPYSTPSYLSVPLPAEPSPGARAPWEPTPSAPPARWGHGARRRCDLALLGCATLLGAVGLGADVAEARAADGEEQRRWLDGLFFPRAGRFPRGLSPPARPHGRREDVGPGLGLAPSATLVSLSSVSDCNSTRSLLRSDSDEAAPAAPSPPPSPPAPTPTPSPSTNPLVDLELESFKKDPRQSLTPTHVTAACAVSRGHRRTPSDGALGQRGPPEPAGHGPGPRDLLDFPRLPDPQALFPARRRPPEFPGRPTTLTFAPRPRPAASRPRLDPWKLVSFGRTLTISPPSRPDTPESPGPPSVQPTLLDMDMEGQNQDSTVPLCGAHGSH
From the text: as §4

[10] = molecular target: T1, Syk CatDom (Homo sapiens, UniProt P43405); assay: TR-FRET Kinome Syk CatDom; type: binding; conditions: Syk CatDom .006(Subs Conc)
T1 construct: Syk CatDom
From the text: as §4

[11] = molecular target: Plk3 (Homo sapiens, UniProt Q9H4B4); assay: TR-FRET Kinome Plk3; type: binding; conditions: Plk3 Invitrogen .05(Subs Conc)
Sequence of Plk3 (Q9H4B4 whole entry): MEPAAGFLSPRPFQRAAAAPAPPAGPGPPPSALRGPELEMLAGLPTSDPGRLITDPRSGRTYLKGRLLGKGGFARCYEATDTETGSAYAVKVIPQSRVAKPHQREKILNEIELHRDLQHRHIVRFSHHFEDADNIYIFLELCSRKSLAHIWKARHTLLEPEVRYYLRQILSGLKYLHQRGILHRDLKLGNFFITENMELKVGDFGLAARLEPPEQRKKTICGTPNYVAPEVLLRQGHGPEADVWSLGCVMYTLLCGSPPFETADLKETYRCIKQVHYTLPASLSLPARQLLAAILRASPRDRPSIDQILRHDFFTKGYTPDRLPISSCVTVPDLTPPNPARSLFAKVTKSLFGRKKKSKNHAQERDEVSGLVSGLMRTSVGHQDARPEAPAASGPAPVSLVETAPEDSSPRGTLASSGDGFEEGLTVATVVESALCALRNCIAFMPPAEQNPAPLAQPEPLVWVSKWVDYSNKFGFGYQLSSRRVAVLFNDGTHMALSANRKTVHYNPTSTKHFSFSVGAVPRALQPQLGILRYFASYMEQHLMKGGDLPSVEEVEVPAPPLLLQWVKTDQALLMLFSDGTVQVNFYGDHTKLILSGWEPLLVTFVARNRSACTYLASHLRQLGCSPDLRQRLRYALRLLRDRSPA
From the text: as §4

[12] = molecular target: T2, ACVR1 (Homo sapiens, UniProt Q04771); assay: TR-FRET Kinome ACVR1; type: binding; conditions: ACVR1 Invitrogen .05(Subs Conc)
T2 construct: purchased Invitrogen
T2 sequence (Q04771 21-509): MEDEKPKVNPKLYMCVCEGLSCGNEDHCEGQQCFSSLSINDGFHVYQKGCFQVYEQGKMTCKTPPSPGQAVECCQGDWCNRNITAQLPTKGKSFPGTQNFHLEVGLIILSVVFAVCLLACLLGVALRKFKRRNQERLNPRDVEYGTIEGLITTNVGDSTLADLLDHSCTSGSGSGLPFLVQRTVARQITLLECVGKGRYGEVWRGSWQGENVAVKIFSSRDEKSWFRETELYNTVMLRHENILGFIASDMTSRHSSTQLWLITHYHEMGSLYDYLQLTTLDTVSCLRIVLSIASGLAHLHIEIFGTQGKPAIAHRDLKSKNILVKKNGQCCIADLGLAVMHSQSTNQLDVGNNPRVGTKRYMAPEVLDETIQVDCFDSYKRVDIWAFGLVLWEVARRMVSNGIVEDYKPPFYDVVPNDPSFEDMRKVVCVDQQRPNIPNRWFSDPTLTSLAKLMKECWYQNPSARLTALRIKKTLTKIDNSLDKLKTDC
From the text: as §4

[13] = molecular target: MAP2K3 (Homo sapiens, UniProt P46734); assay: TR-FRET Kinome MAP2K3; type: binding; conditions: MAP2K3 Invitrogen .075(Subs Conc)
Sequence of MAP2K3 (P46734 whole entry): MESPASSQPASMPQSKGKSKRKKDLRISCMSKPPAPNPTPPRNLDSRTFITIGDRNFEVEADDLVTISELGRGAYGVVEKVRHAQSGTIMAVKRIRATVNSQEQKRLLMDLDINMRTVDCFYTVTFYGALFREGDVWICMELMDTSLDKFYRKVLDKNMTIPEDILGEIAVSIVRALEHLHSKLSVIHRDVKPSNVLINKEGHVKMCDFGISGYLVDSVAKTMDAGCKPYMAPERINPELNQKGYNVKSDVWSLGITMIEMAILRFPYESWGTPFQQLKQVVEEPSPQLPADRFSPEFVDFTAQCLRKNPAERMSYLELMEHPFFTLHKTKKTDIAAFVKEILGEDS
From the text: as §4

[14] = test system: STAT3 and STAT5 tyrosine phosphorylation; assay: Tyrosine phosphorylation of STAT3 and STAT5 by immunoblotting in leukemia cell lines; type: cell-based
Method: SET-2, HEL, MV4;11, and K562 cells were obtained from ATCC and cultured as recommended. UKE-1 cells were purchased from Walter Fiedler (University of Hamburg). Cell lysates were either prepared using CHAPS lysis buffer (10 mM HEPES, pH 7.4, 150 mM NaCl, 1% CHAPS) or cell extraction buffer containing 1% Triton X-100, 0.1% SDS, and 0.5% deoxycholate. All buffers were supplemented with protease and phosphatase inhibitor cocktails prior to use.
as §5

[15] = test system: Mcl-1 mRNA; assay: Mcl-1 mRNA abundance by qPCR in SET-2, UKE-1, HEL, MV4;11, K562 cells; type: cell-based; conditions: for MCL-1 % Control: treated vs non-treated (100.0); for MCL-1 Mean QTY: treated, normalised mRNA quantity by qPCR
[16] = molecular target: BRAF (Homo sapiens, UniProt P15056); assay: TR-FRET Kinome BRAF; type: binding; conditions: BRAF Invitrogen .065(Subs Conc)
Sequence of BRAF (P15056 whole entry): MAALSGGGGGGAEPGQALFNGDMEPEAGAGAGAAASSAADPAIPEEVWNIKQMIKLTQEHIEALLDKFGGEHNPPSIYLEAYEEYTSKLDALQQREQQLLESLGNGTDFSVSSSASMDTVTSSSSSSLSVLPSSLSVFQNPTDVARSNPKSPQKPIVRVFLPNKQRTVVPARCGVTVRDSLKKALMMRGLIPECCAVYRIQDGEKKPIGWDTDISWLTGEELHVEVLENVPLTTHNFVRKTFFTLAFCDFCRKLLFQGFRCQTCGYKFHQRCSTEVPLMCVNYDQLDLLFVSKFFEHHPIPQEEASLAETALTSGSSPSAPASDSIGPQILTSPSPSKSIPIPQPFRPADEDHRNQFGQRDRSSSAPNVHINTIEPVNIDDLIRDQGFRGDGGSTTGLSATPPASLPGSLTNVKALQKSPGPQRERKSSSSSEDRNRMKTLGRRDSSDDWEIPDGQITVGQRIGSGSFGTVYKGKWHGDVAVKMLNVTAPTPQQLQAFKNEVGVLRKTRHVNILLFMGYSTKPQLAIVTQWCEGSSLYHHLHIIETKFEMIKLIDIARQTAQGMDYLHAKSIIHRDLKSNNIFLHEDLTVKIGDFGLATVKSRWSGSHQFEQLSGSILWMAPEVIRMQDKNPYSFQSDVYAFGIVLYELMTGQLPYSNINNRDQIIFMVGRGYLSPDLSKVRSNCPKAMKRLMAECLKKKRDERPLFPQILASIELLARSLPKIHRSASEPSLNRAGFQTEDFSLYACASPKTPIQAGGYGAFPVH
From the text: as §4

CC1(C)CCC(c2ccc(Cl)cc2)=C(CN2CCN(c3ccc(C(=O)NS(=O)(=O)c4ccc(N[C@H](CCN5CCOCC5)CSc5ccccc5)c(S(=O)(=O)C(F)(F)F)c4)cc3)CC2)C1 [ABT-263]
Viability (% Inhibiton) ([1]; ABT-263 0.003 uM): 0%
Viability (% Inhibiton) ([1]; ABT-263 0.01 uM): 0%
Viability (% Inhibiton) ([1]; ABT-263 0.03 uM): 0%
Viability (% Inhibiton) ([1]; ABT-263 0.1 uM): 0%
Viability (% Inhibiton) ([1]; ABT-263 0.3 uM): 10%
Viability (% Inhibiton) ([1]; ABT-263 1 uM): 19%
drug-drug interaction (Bliss additivity) [2]: Synergistic interactions
Bim binding to Bcl-XL ([3]; 0.15 μM ABT-263, 3 hr, irrespective of JAK2 mutational status): displaced
caspase-3 activity, combination ([4]; JAKi-I 6 hr pretreatment followed by ABT-263, within four hours, cell lines harboring JAK2 V617F): synergistic induction
caspase-3 activity, single agent [4]: neither JAKi-I nor ABT-263 alone induced caspase-3 activity
Viability (% Inhibiton) ([5]; ABT-263 0.003 uM): 0%
Viability (% Inhibiton) ([5]; ABT-263 0.01 uM): 0%
Viability (% Inhibiton) ([5]; ABT-263 0.03 uM): 1%
Viability (% Inhibiton) ([5]; ABT-263 0.1 uM): 14%
Viability (% Inhibiton) ([5]; ABT-263 0.3 uM): 55%
Viability (% Inhibiton) ([5]; ABT-263 1 uM): 95%

CC(C)(C)c1nc2c3cc[nH]c(=O)c3c3cc(F)ccc3c2[nH]1 [JAKi-I, JAK inhibitor I]
pKi [6]: < 5.49
pKi [7]: < 5.18
BCLxl % Control ([8]; HEL cells): 30.4093%
BCLxl Mean QTY ([8]; HEL cells): 76.1
BCLxl % Control ([8]; K562 cells): 93.9154%
BCLxl Mean QTY ([8]; K562 cells): 98.4
BCLxl % Control ([8]; MV411 cells): 101.412%
BCLxl Mean QTY ([8]; MV411 cells): 30.8
BCLxl % Control ([8]; SET2 cells): 19.4966%
BCLxl Mean QTY ([8]; SET2 cells): 62.5
Bcl-XL transcript level ([8]; following JAK inhibition, 6 hr): sharply declined
pKi [9]: < 5.51
pKi [10]: < 5.49
pKi [11]: < 5.81
pKi [12]: < 5.36
pKi [13]: < 5.51
abundance of total Bim protein ([3]; 1 μM JAKi-I, 6 hr, HEL and K562 lysates): not altered
Bim in Bcl-XL immunoprecipitates ([3]; 1 μM JAKi-I, 6 hr, in the presence of the JAK2 V617F mutation): enriched
constitutive STAT3/5 phosphorylation ([14]; 1 μM, 1 hr, serum-free, only in JAK2 V617F lines (SET-2, UKE-1, HEL), not K562, MV4;11): inhibited
phosphorylation of both STAT3 and STAT5 ([14]; UKE-1 (JAK2 V617F) cells, 10 min): rapid, dose-dependent inhibition
caspase-3 activity, single agent [4]: neither JAKi-I nor ABT-263 alone induced caspase-3 activity
MCL-1 % Control ([15]; HEL cells): 59.2674%
MCL-1 Mean QTY ([15]; HEL cells): 25.0
MCL-1 % Control ([15]; K562 cells): 89.9219%
MCL-1 Mean QTY ([15]; K562 cells): 50.9
MCL-1 Mean QTY ([15]; MV411 cells): 30.6
MCL-1 % Control ([15]; SET2 cells): 37.995%
MCL-1 Mean QTY ([15]; SET2 cells): 47.0
Mcl-1 transcript level ([15]; following JAK inhibition, 6 hr): sharply declined
pKi [16]: < 5.47
